Laboratory results taken from patent US20130190248A1, “S[…] ANALOGS” (AGENSYS, INC., priority 2011, published 2013).
Where a SMILES comes first, the peptide text is derived from it. [ ]: non-standard residue; d: D form. The star is where a group is joined. Dolaproine = CO[C@@H]([C@@H]1CCCN1)[C@@H](C)C(=O)O; Dil = CC[C@H](C)[C@H](NC)[C@@H](CC(=O)O)OC; NH(2-(2-pyridyl)ethyl) = c1ccc(CCN*)nc1; NMeV = CN[C@H](C(=O)O)C(C)C

Test system: SW780 human bladder cancer cells
Experiment: In vivo efficacy in subcutaneously established human bladder cancer cell line SW780 implanted in ICR SCID mice
Settings: QW for 3 weeks, SW780 xenograft, male ICR SCID mice
Procedure: Determination of In Vivo Efficacy of Test Compounds: Efficacy Evaluation in Subcutaneously Established Human Bladder Cancer Cell Line SW780 Implanted in ICR SCID Mice
For animal in vivo studies, the test compounds were diluted with 20 mM Histidine, 5% Sucrose, pH 6 with 15% DMSO. Male ICR SCID mice (Taconic Farm, Hudson, N.Y.) were housed in standard rodent micro isolator cages. Environment controls for the animal rooms were set to maintain a temperature between 68-75° F., a relative humidity between 30% to 70%, and an approximate 12 h light/12 h dark cycle. Food and water was provided ad libitum. After 72 h of acclimatization, the mice were implanted with SW780 human bladder cancer cells (2×10^6 cells/mouse), suspended in 50% complete cultrex (Trevigen, Inc.) mixed with 1×PBS (Gibco), and the tumor growth rate was monitored. When the average tumor volume reached ˜200 mm^3, tumors were size-matched and mice were randomized to treatment groups (n=8 or 10). The tumor-bearing mice were treated i.v. with Vehicle or test compound at 2 or 4 mg/kg (mpk) on a QW dosing schedule for 3 weeks. Tumor volume was assessed twice weekly using caliper measurement.

SMILES: CC[C@H](C)[C@@H]([C@@H](CC(=O)N1CCC[C@H]1[C@H](OC)[C@@H](C)C(=O)NCCc1ccccn1)OC)N(C)C(=O)[C@@H](NC(=O)[C@@H](NC)C(C)C)C(C)C [Example 1, (S)—N-((3R,4S,5S)-3-Methoxy-1-((S)-2-((1R,2R)-1-methoxy-2-methyl-3-oxo-3-((2-(pyridin-2-yl)ethyl)amino)propyl)pyrrolidin-1-yl)-5-methyl-1-oxoheptan-4-yl)-N,3-dimethyl-2-((S)-3-methyl-2-(methylamino)butanamido)butanamide] (H-[NMeV]V[Dil][Dolaproine]-{NH(2-(2-pyridyl)ethyl)})
- effect on tumor growth (mean tumor volume versus days of treatment) (2 mg/kg i.v.): tumor stasis
- effect on tumor growth (mean tumor volume versus days of treatment) (4 mg/kg i.v.): tumor stasis

SMILES: CC[C@H](C)[C@@H]([C@@H](CC(=O)N1CCC[C@H]1[C@H](OC)[C@@H](C)C(=O)NCCc1ccc(N)cc1)OC)N(C)C(=O)[C@@H](NC(=O)[C@H](C(C)C)N(C)C)C(C)C [Example 22, (S)—N-((3R,4S,5S)-1-((S)-2-((1R,2R)-3-((4-aminophenethyl)amino)-1-methoxy-2-methyl-3-oxopropyl)pyrrolidin-1-yl)-3-methoxy-5-methyl-1-oxoheptan-4-yl)-2-((S)-2-(dimethylamino)-3-methylbutanamido)-N,3-dimethylbutanamide]
- effect on tumor growth (mean tumor volume versus days of treatment) (2 mg/kg i.v.): tumor stasis
